Results reported in US20040127489A1, “Novel antipsychotic combination therapies and compositions useful therein” (priority 2002, published 2004).

Key:
[1] = idazoxan 120 mg/day added to 1000 mg chlorpromazine equivalents of fluphenazine; Litman et al. 1996; cited from earlier work
[2] = system: α2 adrenoreceptors; conditions: Martire et al. 1988; cited from earlier work
[3] = system: α2 autoreceptors; conditions: presynaptic; Martire et al. 1988; cited from earlier work
[4] = biological target: D2 receptor (Homo sapiens, UniProt P14416); conditions: Merck Manual 17th Edition; cited from earlier work
[5] = system: Wistar rats; assay: Conditioned avoidance response (CAR) behavior in rats; format: in vivo; conditions: rat CAR; adjunct treatment with idazoxan
Description: Food and water were available ad libitum.
Rats were trained and tested in a conventional, manually operated two-way active avoidance (shuttlebox) apparatus connected to a high resistance power supply. The box was divided into two compartments of equal size by a partition with one opening. Upon presentation of the 80 dB white noise conditioned stimulus (CS), the animals had 10 seconds to move from one compartment of the shuttlebox into the other. If the rat remained in the same compartment for more than 10 seconds, an intermittent electric shock (approx. 0.2 mA of 0.5-sec duration; intershock interval 2.5 sec), the unconditioned stimulus (UCS), was presented in the grid floor until an escape was performed. […] Intertrial intervals varied at random between 20 and 40 seconds. The following variables were recorded: avoidance (response to CS within 10 sec); escape (response to CS+UCS); escape failures (failure to respond); and intertrial crosses. The animals were trained for 3 consecutive days. Training sessions were run over 15 minutes. A final test session (7.5 minutes) was performed on the day immediately prior to the first experimental day, and only animals performing at the 100% correct level were assigned to the experiment. Experimental manipulations were always preceded by a pretest. […]

[6] = system: α2 adrenergic receptor versus dopamine D2 receptor; conditions: literature; cited from earlier work

Chain of D2 receptor (P14416 whole entry): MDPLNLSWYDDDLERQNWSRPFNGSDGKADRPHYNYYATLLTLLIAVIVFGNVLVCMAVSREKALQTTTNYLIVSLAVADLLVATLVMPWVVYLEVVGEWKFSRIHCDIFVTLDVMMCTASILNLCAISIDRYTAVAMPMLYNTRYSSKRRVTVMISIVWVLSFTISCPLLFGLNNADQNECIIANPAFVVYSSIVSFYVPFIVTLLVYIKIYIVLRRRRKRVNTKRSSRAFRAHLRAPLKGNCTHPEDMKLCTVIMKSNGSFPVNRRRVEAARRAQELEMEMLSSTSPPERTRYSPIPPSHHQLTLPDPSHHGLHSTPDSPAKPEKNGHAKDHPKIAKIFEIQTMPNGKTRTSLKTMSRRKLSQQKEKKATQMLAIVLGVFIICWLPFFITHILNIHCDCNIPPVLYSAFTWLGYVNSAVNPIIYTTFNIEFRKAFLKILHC

## c1ccc2c(c1)OCC(C1=NCCN1)O2 (racemic) [idazoxan, ±-2-(1,4-benzodioxan-2-yl)-d-imidazoline]
[1]
  clinical response: adequate clinical responses

## c1ccc2c(c1)OCC(C1=NCCN1)O2 (single isomer, unassigned; (+)) [(+)-idazoxan]
[2]
  potency in inhibiting p-[3H]aminoclonidine binding relative to (−) idazoxan: 7-8 times
[3]
  affinity towards the α2 autoreceptors relative to (−) idazoxan: 40 times

## OCCN1CCN(CCCN2c3ccccc3Sc3ccc(C(F)(F)F)cc32)CC1 [fluophenazine, fluphenazine]
[4]
  dose corresponding to 1000 mg chlorpromazine equivalents: 20 mg

## Cc1cc2c(s1)Nc1ccccc1N=C2N1CCN(C)CC1 [olanzapine]
[5]
  reduction of the olanzapine dose required for an effective antipsychotic effect through adjunct idazoxan: ~50%

## OCCOCCN1CCN(C2=Nc3ccccc3Sc3ccccc32)CC1 [quetiapine]
[4]
  dose corresponding to 1000 mg chlorpromazine equivalents: 900 mg

## O=C1NCCN1CCN1CCC(c2cn(-c3ccc(F)cc3)c3ccc(Cl)cc23)CC1 [sertindole]
[4]
  dose corresponding to 1000 mg chlorpromazine equivalents: 24 mg

## O=C1Cc2cc(CCN3CCN(c4nsc5ccccc45)CC3)c(Cl)cc2N1 [ziprasidone]
[6]
  fold less affinity for the α2 adrenergic receptor than for the dopamine D2 receptor: 100 fold
